# Measured values as given in patent US20190262453A1, “DESIGN AND COMPOSITION OF CELL-STABILIZED PHARMACEUTICAL FORMULATIONS” (THE REGENTS OF THE UNIVERSITY OF MICHIGAN, priority 2016, published 2019).
# Test system: peritoneal macrophages
# Assay: Peritoneal lavage: cell counts and CLDI-containing cells
# Assay type: in vivo, Mice
# Conditions: PBS-CFZ fed group, peritoneal cavity
# Experimental: In order to deplete tissue macrophages, mice were treated with liposomes containing either 7 mg/mL clodronate or phosphate-buffered saline (PBS) (FormuMax Scientific Inc., Sunnyvale, Calif.) for up to six weeks. Liposomes were injected IP to eliminate macrophages of the liver, spleen, and peritoneal cavity. Mice were initially treated with 200 μL of liposomes, followed by 100 μL injections twice per week to ensure continual depletion of macrophages. Mice were fed CFZ or a control diet continuously for a four week period. Following two weeks of feeding, liposome treatment began for two weeks. After completing four weeks of feeding and two weeks of liposome treatment, the mice were sacrificed and tissues were collected. Following euthanasia, a small incision was made in the lower abdomen. […] The peritoneal lavage was centrifuged for 10 min at 400×g, 4° C,and then resuspended in DMEM media (Life Technologies). The cells were then plated onto 4 or 8 chamber coverglass (#1.5, Lab-Tek II, Nunc, Rochester, N.Y.) for imaging. The cells were allowed to attach overnight and then washed with media.
smiles,measurement,value
"CC(C)N=c1cc2n(-c3ccc(Cl)cc3)c3ccccc3nc-2cc1Nc1ccc(Cl)cc1 [CFZ, 3-(p-chloroanilino)-10-(p-chlorophenyl)-2, 10-dihydro-2-isopropyliminophenazine]",macrophages containing at least one intracellular CLDI,approximately 50%
